According to US11319344B2, “Non-membrane disruptive P53 activating stapled peptides” (AGENCY FOR SCIENCE, TECHNOLOGY AND RESEARCH, priority 2015, dated 2022):
Where two headings read alike, the source gives them in different places. *1 amine or outer side, *2 acyl side, *3 side chain or, on linkers, in order; H or OH if unused. Where a SMILES comes first, the peptide text is derived from it. Bridges are numbered along the chain shown (N, C = ends). [ ]: non-standard residue; d: D form. ξ: configuration not given here. ξαMeNle(6-ylidene) = CC(CCCC=[*:3])(N[*:1])C(=O)[*:2]; X1 = CC(CCCCCCC=[*:3])(N[*:1])C(=O)[*:2]; R8 = C=CCCCCCC[C@@](C)(N)C(=O)O; R5 = C=CCCC[C@@](C)(N)C(=O)O; S5 = C=CCCC[C@](C)(N)C(=O)O; Ahx = NCCCCCC(=O)O

Columns and labels:
[1] = target: N-terminal domain of Mdm2 (1-125) (Homo sapiens, UniProt Q00987); test: Competitive fluorescence anisotropy titration (apparent Kd); conditions: for Kd stronger in comparison to sMTIDE-02: ratio to sMTIDE-02 Kd
N-terminal domain of Mdm2 (1-125), sequence (Q00987 1-125): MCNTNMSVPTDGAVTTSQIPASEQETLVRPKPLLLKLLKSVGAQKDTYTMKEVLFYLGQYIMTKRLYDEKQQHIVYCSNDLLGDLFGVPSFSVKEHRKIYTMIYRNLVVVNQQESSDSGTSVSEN
Procedure: In this assay, a N-terminally FAM labelled peptide of the sequence [sequence]
The cells expressing the Mdm2 GST fusion construct were grown in LB medium at 37° C. to an OD600 of ˜0.6 and induction was carried out with 1 mM isopropyl β-D-1-thiogalactopyranoside (IPTG) at room temperature. Cells were harvested by centrifugation and the cell pellets were resuspended in 50 mM Tris pH 8.0, 10% sucrose and then sonicated. The sonicated sample was centrifuged for 60 minutes at 17,000 g at 4° C. […] The column was then further washed by 6 volumes of wash buffer. Mdm2 were then purified from the column by cleavage with PreScission protease. 10 units of PreScission protease, in one column volume of PBS with 1 mM DTT buffer, were injected onto the column. The cleavage reaction was allowed to proceed overnight at 4° C. The cleaved protein was then eluted of the column with wash buffer. Protein fractions were analysed with SDS-PAGE and concentrated using a Centricon (3.5 kDa molecular weight cut-off (MWCO)) concentrator. The Mdm2 protein sample was then dialyzed into a buffer solution containing 20 mM Bis-Tris, pH 6.5, 0.05M NaCl with 1 mM DTT and loaded onto a monoS column pre-equilibrated in buffer A (20 mM Bis-Tris, pH 6.5, 1 mM DTT). The column was then washed in 6 column volumes of buffer A and bound protein was eluted with a linear gradient of 1M NaCl over 25 column volumes. Protein fractions were analysed with sodium dodecyl sulfate-polyacrylamide gel electrophoresis (SDS-PAGE) and concentrated using a Centricon (3.5 kDa molecular weight cut-off (MWCO)) concentrator.
Apparent dissociation constant (Kd) values were determined for a variety of molecules via competitive fluorescence anisotropy experiments. […] The competing molecules were then titrated against the complex of the FAM labelled peptide and protein. Apparent dissociation constant (Kd) values were determined by fitting the experimental data to the equations shown below:
[L]st and [L]t denote labelled ligand and total unlabelled ligand input concentrations, respectively. Kd2 is the dissociation constant of the interaction between the unlabelled ligand and the protein. In all competitive types of experiments, it is assumed that [P]t>[L]st, otherwise considerable amounts of free labelled ligand would always be present and would interfere with measurements. […] The FAM-labelled peptide was dissolved in dimethyl sulfoxide (DMSO) at 1 mM and diluted into experimental buffer. Readings were carried out with a Envision Multilabel Reader. […] All titrations were carried out in triplicate. Curve-fitting was carried out using Prism 4.0 (GraphPad). […]

[2] = tested on: p53 transcriptional activity in T22 cells; test: T22 p53 β-galactosidase based reporter assay; assay type: cell-based, murine; conditions: for IC50: T22 p53 reporter assay, 18 h; for ability to induce p53 activity in T22 reporter assay: with and without serum
Procedure: The YS-01/04 peptides were screened in a murine T22-derived p53 reporter assay, either with or without fetal calf serum, to assess their ability to induce p53 transcriptional activity in intact cells (Table 1 and FIG. 3).
(§1) T22 cells, which were stably transfected with a p53 responsive β-galactosidase reporter, were seeded into 96-well plate at a cell density of 8000 cells per well. Cells were also maintained in Dulbecco's Minimal Eagle Medium (DMEM) with 10% fetal bovine serum (FBS) and penicillin/streptomycin. […] Measurements were carried out using a Safire II multiplate reader. Experiments were carried out independently twice.

[3] = Circular dichroism spectroscopy (helicity in solution); assay type: physicochemical; conditions: peptide unbound in solution
[4] = tested on: p53 transcriptional activity in ARN8 cells; test: ARN8 β-galactosidase based p53 reporter assay; assay type: cell-based, Human; conditions: 18 h; for p53 activation (β-galactosidase activity) in ARN8 cells: serum free
Procedure: ARN8 cells contain the same β-galactosidase gene under the control of a p53 promoter that is stably transfected into T22 cells. […] The YS-07 and YS-09 titrations were again repeated and the lactate dehydrogenase leakage from ARN8 cells measured instead (FIGS. 8c and 8d).
as §1, with “ARN8” for “T22”

ARN8 cells = test: Lactate dehydrogenase release assay, ARN8 cells; assay type: cell-based; conditions: 2 h, 50/25/12.5 μM, absence or presence of serum
Procedure: (§2) The stapled YS-01/04 peptides were also screened for their ability to perturb the cell membrane wall of T22 and ARN8 cells and release cytosolic lactate dehydrogenase (LDH). An effect that is regarded as undesirable as this may indicate that the peptide is non-specifically toxic to different cell types. A short 2 hour time treatment period is used for this assay as it is assumed that perforation of the cell membrane occurs […] for cell programmed death. […] The lactate dehydrogenase leakage measured was much greater in ARN8 cells than T22 cells, showing that different cells vary in their sensitivities to the membrane disruptive properties of YS-03. […] This implies that p53 activation, which is also supported by the data for YS-04, does occur in the absence of membrane disruption and that the biological activity observed for is not a direct consequence of cellular toxicity.
(§3) T22 cells or ARN8 cells, both of which were stably transfected with a p53 responsive β-galactosidase reporter, were seeded into a 96-well plate at a cell density of 5000 cells per well. Cells were also maintained in Dulbecco's Minimal Eagle Medium (DMEM) with 10% fetal bovine serum (FBS) and penicillin/streptomycin. The cells were incubated for 24 hours and then treated with compounds/peptide for 2 hours in DMEM with or without 10% FBS. Cytosolic lactate dehydrogenase release was detected using the non-radioactive cytotoxicity Assay kit (Promega) as per manufacturer's instructions. Measurements were carried out using an Envision multiplate reader.

T22 cells = test: Lactate dehydrogenase release assay, T22 cells; assay type: cell-based; conditions: 2 h, 50/25/12.5 μM, absence or presence of serum
Procedure: as §2, §3

[5] = absence of serum, read-out: T22 IC50 (0% μM)
[6] = presence of 10% fetal calf serum, read-out: T22 Ic50 (10% μM)

Row | IC50 [2, 5] [µM] | IC50 [2, 6] [µM] | Compound | ability to induce p53 activity in T22 reporter assay [2] | helicity in solution (CD spectra) [3] | further results
1 | 9.73 | 78.3 | CC(=O)N[C@H](C(=O)N[C@@H](CO)C(=O)N[C@@H](Cc1ccccc1)C(=O)NC1(C)CCCCCCC=CCCCC(C)(C(=O)N[C@@H](CCC(=O)O)C(=O)N[C@@H](CC(N)=O)C(=O)N[C@@H](Cc2ccc(O)cc2)C(N)=O)NC(=O)[C@H](CC(C)C)NC(=O)[C@H](CC(C)C)NC(=O)[C@H](C)NC(=O)[C@H](Cc2c[nH]c3ccccc23)NC(=O)[C@H](Cc2ccc(O)cc2)NC(=O)[C@H](CCC(=O)O)NC1=O)[C@@H](C)O (stereo partly shown) [YS-04, Ac-^17TSFX8EYWALLS5ENY^30-NH2] | greater potency in the T22 assay than YS-01 and YS-02 | significantly more helical in character in solution than YS-01 and YS-02 | Kd weaker than the i,i+4 analogue peptides (YS-01 and YS-02) ([1]; ratio to YS-01/YS-02 Kd): approximately 2 fold
2 | 1.98 | 11.6 | CC(=O)N[C@@H](CCCNC(=N)N)C(=O)N[C@@H](CCCNC(=N)N)C(=O)N[C@@H](CCCNC(=N)N)C(=O)NCCCCCC(=O)N[C@H](C(=O)N[C@@H](CO)C(=O)N[C@@H](Cc1ccccc1)C(=O)NC1(C)CCCCCCC=CCCCC(C)(C(=O)N[C@@H](CCC(=O)O)C(=O)N[C@@H](CC(N)=O)C(=O)N[C@@H](Cc2ccccc2)C(N)=O)NC(=O)[C@H](CC(C)C)NC(=O)[C@H](CC(C)C)NC(=O)[C@H](C)NC(=O)[C@H](Cc2c[nH]c3ccccc23)NC(=O)[C@H](Cc2ccc(O)cc2)NC(=O)[C@H](CCC(=O)O)NC1=O)[C@@H](C)O (stereo partly shown) [YS-09, Ac-RRR-Ahx-^17TSFX8EYWALLS5ENF^30-NH2] (Ac-RRR[Ahx]TSF[X1]EYWALL[ξαMeNle(6-ylidene)]ENF-NH2; staple 8-15) | – | – | p53 activation in ARN8 cells ([4]; 10% serum): slightly more activity than YS-07; p53 activation (β-galactosidase activity) in ARN8 cells [4]: sharp burst of p53 transcriptional activity at 3.125 μM followed by a sharp decline at higher concentrations
3 | ~0.78 | 9.95 | CC(=O)N[C@@H](CCCCN)C(=O)N[C@@H](CCCCN)C(=O)NCCCCCC(=O)N[C@H](C(=O)N[C@@H](CO)C(=O)N[C@@H](Cc1ccccc1)C(=O)N[C@]1(C)CCCCCCC=CCCC[C@@](C)(C(=O)N[C@@H](CCC(=O)O)C(=O)N[C@@H](CC(N)=O)C(=O)N[C@@H](Cc2ccccc2)C(N)=O)NC(=O)[C@H](CC(C)C)NC(=O)[C@H](CC(C)C)NC(=O)[C@H](C)NC(=O)[C@H](Cc2c[nH]c3ccccc23)NC(=O)[C@H](Cc2ccc(O)cc2)NC(=O)[C@H](CCC(=O)O)NC1=O)[C@@H](C)O [YS-07, Ac-KK-Ahx-^17TSFX8EYWALLS5ENF^30-NH2] (Ac-KK[Ahx]TSF[R8]EYWALL[S5]ENF-NH2; staple 7-14) | most potent | – | p53 activation (β-galactosidase activity) in ARN8 cells [4]: efficiently induced β-galactosidase activity
4 | – | – | CC(=O)N[C@H](C(=O)N[C@@H](CO)C(=O)N[C@@H](Cc1ccccc1)C(=O)N[C@]1(C)CCCC=CCCC[C@](C)(C(=O)N[C@@H](CC(C)C)C(=O)N[C@@H](CC(C)C)C(=O)N2CCC[C@H]2C(=O)N[C@@H](CCC(=O)O)C(=O)N[C@@H](CC(N)=O)C(=O)N[C@@H](Cc2ccccc2)C(N)=O)NC(=O)[C@H](Cc2c[nH]c3ccccc23)NC(=O)[C@H](Cc2ccc(O)cc2)NC(=O)[C@H](CCC(=O)O)NC1=O)[C@@H](C)O [YS-01, Ac-^17TSFX5EYWX5LLPENF^30-NH2] (Ac-TSF[R5]EYW[R5]LLPENF-NH2; staple 4-8) | – | – | Kd stronger in comparison to sMTIDE-02 [1]: approximately 3 fold
5 | – | – | CC(=O)N[C@H](C(=O)N[C@@H](CO)C(=O)N[C@@H](Cc1ccccc1)C(=O)NC1(C)CCCC=CCCCC(C)(C(=O)N[C@@H](CC(C)C)C(=O)N[C@@H](CC(C)C)C(=O)N2CCC[C@H]2C(=O)N[C@@H](CCC(=O)O)C(=O)N[C@@H](CC(N)=O)C(=O)N[C@@H](Cc2ccc(O)cc2)C(N)=O)NC(=O)[C@H](Cc2c[nH]c3ccccc23)NC(=O)[C@H](Cc2ccc(O)cc2)NC(=O)[C@H](CCC(=O)O)NC1=O)[C@@H](C)O (stereo partly shown) [YS-02, Ac-^17TSFX5EYWX5LLPENY^30-NH2] (Ac-TSF[ξαMeNle(6-ylidene)]EYW[ξαMeNle(6-ylidene)]LLPENY-NH2; staple 4-8) | – | – | cytosolic lactate dehydrogenase (LDH) release (ARN8 cells): negligible lactate dehydrogenase release; Kd stronger in comparison to sMTIDE-02 [1]: approximately 3 fold; cytosolic lactate dehydrogenase (LDH) release (T22 cells): negligible lactate dehydrogenase release
6 | – | – | CC(=O)N[C@H](C(=O)N[C@@H](CO)C(=O)N[C@@H](Cc1ccccc1)C(=O)NC1(C)CCCC=CCCCC(C)(C(=O)N[C@@H](CC(C)C)C(=O)N[C@@H](CC(C)C)C(=O)N[C@@H](CO)C(=O)N[C@@H](CCC(=O)O)C(=O)N[C@@H](CC(N)=O)C(=O)N[C@@H](Cc2ccccc2)C(N)=O)NC(=O)[C@H](Cc2c[nH]c3ccccc23)NC(=O)[C@H](Cc2ccc(O)cc2)NC(=O)[C@H](CCC(=O)O)NC1=O)[C@@H](C)O (stereo partly shown) [YS-05, Ac-^17TSFX5EYWX5LLSENF^30-NH2] (Ac-TSF[ξαMeNle(6-ylidene)]EYW[ξαMeNle(6-ylidene)]LLSENF-NH2; staple 4-8) | improvement of both peptides to activate p53 | significantly more helical structure | cytosolic lactate dehydrogenase (LDH) release (ARN8 cells): negligible activity; cytosolic lactate dehydrogenase (LDH) release (T22 cells): negligible activity
7 | 7.29 | 23.4 | CC(=O)N[C@@H](CCCCN)C(=O)N[C@@H](CCCCN)C(=O)NCCCCCC(=O)N[C@H](C(=O)N[C@@H](CO)C(=O)N[C@@H](Cc1ccccc1)C(=O)N[C@]1(C)CCCCCCC=CCCC[C@@](C)(C(=O)N[C@@H](CCC(=O)O)C(=O)N[C@@H](CC(N)=O)C(=O)N[C@@H](Cc2ccc(O)cc2)C(N)=O)NC(=O)[C@H](CC(C)C)NC(=O)[C@H](CC(C)C)NC(=O)[C@H](C)NC(=O)[C@H](Cc2c[nH]c3ccccc23)NC(=O)[C@H](Cc2ccc(O)cc2)NC(=O)[C@H](CCC(=O)O)NC1=O)[C@@H](C)O [YS-08, Ac-KK-Ahx-^17TSFX8EYWALLS5ENY^30-NH2] (Ac-KK[Ahx]TSF[R8]EYWALL[S5]ENY-NH2; staple 7-14) | least potent amongst the four peptides | – | –
8 | – | – | CC(=O)N[C@H](C(=O)N[C@@H](CO)C(=O)N[C@@H](Cc1ccccc1)C(=O)N[C@]1(C)CCCC=CCCC[C@](C)(C(=O)N[C@@H](CC(C)C)C(=O)N[C@@H](CC(C)C)C(=O)N[C@@H](CO)C(=O)N[C@@H](CCC(=O)O)C(=O)N[C@@H](CC(N)=O)C(=O)N[C@@H](Cc2ccc(O)cc2)C(N)=O)NC(=O)[C@H](Cc2c[nH]c3ccccc23)NC(=O)[C@H](Cc2ccc(O)cc2)NC(=O)[C@H](CCC(=O)O)NC1=O)[C@@H](C)O [YS-06, Ac-^17TSFX5EYWX5LLSENY^30-NH2] (Ac-TSF[R5]EYW[R5]LLSENY-NH2; staple 4-8) | improvement of both peptides to activate p53 | significantly more helical structure | –
9 | 1.69 | 17.9 | CC(=O)N[C@@H](CCCNC(=N)N)C(=O)N[C@@H](CCCNC(=N)N)C(=O)N[C@@H](CCCNC(=N)N)C(=O)NCCCCCC(=O)N[C@H](C(=O)N[C@@H](CO)C(=O)N[C@@H](Cc1ccccc1)C(=O)NC1(C)CCCCCCC=CCCCC(C)(C(=O)N[C@@H](CCC(=O)O)C(=O)N[C@@H](CC(N)=O)C(=O)N[C@@H](Cc2ccc(O)cc2)C(N)=O)NC(=O)[C@H](CC(C)C)NC(=O)[C@H](CC(C)C)NC(=O)[C@H](C)NC(=O)[C@H](Cc2c[nH]c3ccccc23)NC(=O)[C@H](Cc2ccc(O)cc2)NC(=O)[C@H](CCC(=O)O)NC1=O)[C@@H](C)O (stereo partly shown) [YS-10, Ac-RRR-Ahx-^17TSFX8EYWALLS5ENY^30-NH2] (Ac-RRR[Ahx]TSF[X1]EYWALL[ξαMeNle(6-ylidene)]ENY-NH2; staple 8-15) | – | – | –
